Test results reported in ChEMBL document CHEMBL3885861, “Open TG-GATES”.

Organism: Rattus norvegicus
Assay: Open TG-GATES - Regimen: Daily Repeat
Format: toxicity, organism-based, Sprague-Dawley
Set-up: regimen Daily Repeat, gender Male, age 6 weeks
Settings: in vivo, po, 15 mg/kg, route gavage, dose level High; for APTT / Bas / Eos / Fbg / Hb / Ht / Lym / MCH / MCHC / MCV / Mono / Neu / PT / Plat / RBC / Ret / WBC: tissue Blood; for KIDNEY_L / KIDNEY_R / KIDNEY_TOTAL: tissue Kidney; for LIVER: tissue Liver; for ALP / ALT / AST / BUN / CRE / Ca / Cl / DBIL / GLC / IP / K / LDH / Na / PL / RALB / TBIL / TC / TG / TP / gamma-GTP: tissue Plasma

O=P1(N(CCCl)CCCl)NCCCO1 (stereo not drawn) [CYCLOPHOSPHAMIDE ANHYDROUS]
TERMINAL_BW (72 h, time 3 day): 216.4 g | APTT (72 h, time 3 day): 19.7 s | Bas (72 h, time 3 day): 0% | Eos (72 h, time 3 day): 1% | Fbg (72 h, time 3 day): 279.6 mg/dL | Hb (72 h, time 3 day): 12.9 g/dL | Ht (72 h, time 3 day): 38.7% | Lym (72 h, time 3 day): 73.8% | MCH (72 h, time 3 day): 21.8 pg | MCHC (72 h, time 3 day): 33.3% | MCV (72 h, time 3 day): 65.5 fL | Mono (72 h, time 3 day): 1.4% | Neu (72 h, time 3 day): 23.8% | PT (72 h, time 3 day): 16.8 s | Plat (72 h, time 3 day): 121.4 x10_4/uL | RBC (72 h, time 3 day): 590.2 x10_4/ul | Ret (72 h, time 3 day): 1.6% | WBC (72 h, time 3 day): 25.1 x10_2/uL | KIDNEY_L (72 h, time 3 day): 1 g | KIDNEY_R (72 h, time 3 day): 1 g | KIDNEY_TOTAL (72 h, time 3 day): 1.9 g | LIVER (72 h, time 3 day): 10.1 g | ALP (72 h, time 3 day): 1493.4 IU/L | ALT (72 h, time 3 day): 36.8 IU/L | AST (72 h, time 3 day): 65.2 IU/L | BUN (72 h, time 3 day): 16.4 mg/dL | CRE (72 h, time 3 day): 0.2 mg/dL | Ca (72 h, time 3 day): 10.6 mg/dL | Cl (72 h, time 3 day): 106.4 meq/L | DBIL (72 h, time 3 day): 0 mg/dL | GLC (72 h, time 3 day): 187.6 mg/dL | IP (72 h, time 3 day): 7.8 mg/dL | K (72 h, time 3 day): 3.9 meq/L | LDH (72 h, time 3 day): 169.2 IU/L | Na (72 h, time 3 day): 142.6 meq/L | PL (72 h, time 3 day): 148.2 mg/dL | RALB (72 h, time 3 day): 2.9 g/dL | TBIL (72 h, time 3 day): 0.008 mg/dL | TC (72 h, time 3 day): 78.8 mg/dL | TG (72 h, time 3 day): 95 mg/dL | TP (72 h, time 3 day): 5.5 g/dL | gamma-GTP (72 h, time 3 day): 1 IU/L | TERMINAL_BW ([…], time 7 day): 231.7 g | TERMINAL_BW ([…], time 14 day): 252.5 g | TERMINAL_BW ([…], time 28 day): 239.3 g | APTT ([…], time 7 day): 22.1 s | Bas ([…], time 7 day): 0% | Eos ([…], time 7 day): 1% | Fbg ([…], time 7 day): 277.2 mg/dL | Hb ([…], time 7 day): 13.1 g/dL | Ht ([…], time 7 day): 38.8% | Lym ([…], time 7 day): 77% | MCH ([…], time 7 day): 21 pg | MCHC ([…], time 7 day): 33.6% | MCV ([…], time 7 day): 62.5 fL | Mono ([…], time 7 day): 1.2% | Neu ([…], time 7 day): 20.4% | PT ([…], time 7 day): 15.2 s | Plat ([…], time 7 day): 81.8 x10_4/uL | RBC ([…], time 7 day): 622 x10_4/ul | Ret ([…], time 7 day): 2.8% | WBC ([…], time 7 day): 12.8 x10_2/uL | APTT ([…], time 14 day): 21 s | Bas ([…], time 14 day): 0% | Eos ([…], time 14 day): 0.8% | Fbg ([…], time 14 day): 278.4 mg/dL | Hb ([…], time 14 day): 12.8 g/dL | Ht ([…], time 14 day): 37.3% | Lym ([…], time 14 day): 63% | MCH ([…], time 14 day): 21.1 pg | MCHC ([…], time 14 day): 34.2% | MCV ([…], time 14 day): 61.8 fL | Mono ([…], time 14 day): 3% | Neu ([…], time 14 day): 32.2% | PT ([…], time 14 day): 14.1 s | Plat ([…], time 14 day): 107 x10_4/uL | RBC ([…], time 14 day): 604.8 x10_4/ul | Ret ([…], time 14 day): 2.3% | WBC ([…], time 14 day): 4.7 x10_2/uL | APTT ([…], time 28 day): 20.4 s | Bas ([…], time 28 day): 0% | Eos ([…], time 28 day): 2% | Fbg ([…], time 28 day): 277.6 mg/dL | Hb ([…], time 28 day): 9.3 g/dL | Ht ([…], time 28 day): 27.9% | Lym ([…], time 28 day): 20.8% | MCH ([…], time 28 day): 20.7 pg | MCHC ([…], time 28 day): 33.5% | MCV ([…], time 28 day): 62 fL | Mono ([…], time 28 day): 3.8% | Neu ([…], time 28 day): 69.2% | PT ([…], time 28 day): 17.7 s | Plat ([…], time 28 day): 79.2 x10_4/uL | RBC ([…], time 28 day): 448 x10_4/ul | Ret ([…], time 28 day): 8.3% | WBC ([…], time 28 day): 17.2 x10_2/uL | KIDNEY_L ([…], time 7 day): 0.9 g | KIDNEY_R ([…], time 7 day): 1 g | KIDNEY_TOTAL ([…], time 7 day): 1.9 g | KIDNEY_L ([…], time 14 day): 1 g | KIDNEY_R ([…], time 14 day): 1 g | KIDNEY_TOTAL ([…], time 14 day): 2.1 g | KIDNEY_L ([…], time 28 day): 1.1 g | KIDNEY_R ([…], time 28 day): 1.1 g | KIDNEY_TOTAL ([…], time 28 day): 2.1 g | LIVER ([…], time 7 day): 10.9 g | LIVER ([…], time 14 day): 11.4 g | LIVER ([…], time 28 day): 9.6 g | ALP ([…], time 7 day): 1013 IU/L | ALT ([…], time 7 day): 32.2 IU/L | AST ([…], time 7 day): 59 IU/L | BUN ([…], time 7 day): 16.6 mg/dL | CRE ([…], time 7 day): 0.2 mg/dL | Ca ([…], time 7 day): 10.8 mg/dL | Cl ([…], time 7 day): 106.8 meq/L | DBIL ([…], time 7 day): 0 mg/dL | GLC ([…], time 7 day): 178.8 mg/dL | IP ([…], time 7 day): 6.5 mg/dL | K ([…], time 7 day): 4.1 meq/L | LDH ([…], time 7 day): 200 IU/L | Na ([…], time 7 day): 143 meq/L | PL ([…], time 7 day): 144.8 mg/dL | RALB ([…], time 7 day): 2.8 g/dL | TBIL ([…], time 7 day): 0.018 mg/dL | TC ([…], time 7 day): 71.2 mg/dL | TG ([…], time 7 day): 139.6 mg/dL | TP ([…], time 7 day): 5.4 g/dL | gamma-GTP ([…], time 7 day): 1 IU/L | ALP ([…], time 14 day): 573.6 IU/L | ALT ([…], time 14 day): 19.8 IU/L | AST ([…], time 14 day): 40.8 IU/L | BUN ([…], time 14 day): 18.6 mg/dL | CRE ([…], time 14 day): 0.2 mg/dL | Ca ([…], time 14 day): 10.4 mg/dL | Cl ([…], time 14 day): 109.8 meq/L | DBIL ([…], time 14 day): 0.002 mg/dL | GLC ([…], time 14 day): 175.6 mg/dL | IP ([…], time 14 day): 6.2 mg/dL | K ([…], time 14 day): 4.2 meq/L | LDH ([…], time 14 day): 136 IU/L | Na ([…], time 14 day): 143.4 meq/L | PL ([…], time 14 day): 146 mg/dL | RALB ([…], time 14 day): 2.8 g/dL | TBIL ([…], time 14 day): 0.016 mg/dL | TC ([…], time 14 day): 73.6 mg/dL | TG ([…], time 14 day): 142.4 mg/dL | TP ([…], time 14 day): 5.4 g/dL | gamma-GTP ([…], time 14 day): 1.2 IU/L | ALP ([…], time 28 day): 471.2 IU/L | ALT ([…], time 28 day): 35.8 IU/L | AST ([…], time 28 day): 104.8 IU/L | BUN ([…], time 28 day): 30 mg/dL | CRE ([…], time 28 day): 0.2 mg/dL | Ca ([…], time 28 day): 9.7 mg/dL | Cl ([…], time 28 day): 114.2 meq/L | DBIL ([…], time 28 day): 0.05 mg/dL | GLC ([…], time 28 day): 165.6 mg/dL | IP ([…], time 28 day): 7.3 mg/dL | K ([…], time 28 day): 3.9 meq/L | LDH ([…], time 28 day): 516.4 IU/L | Na ([…], time 28 day): 145.8 meq/L | PL ([…], time 28 day): 122 mg/dL | RALB ([…], time 28 day): 2.6 g/dL | TBIL ([…], time 28 day): 0.1 mg/dL | TC ([…], time 28 day): 69.6 mg/dL | TG ([…], time 28 day): 74.4 mg/dL | TP ([…], time 28 day): 5.1 g/dL | gamma-GTP ([…], time 28 day): 1.6 IU/L
